According to patent publication US9079866B2, “Flap modulators” (JANSSEN PHARMACEUTICA NV, priority 2013, dated 2015):
Where a name gives a salt, the structure may show the parent alone. Read-outs that look alike come from different tables or passages of the source.

Assays:
human FLAP = human FLAP (Homo sapiens (Human), UniProt P20292); test: FLAP binding assay (HTRF format)
In short: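 HTRF ratio read-out; two independent plates, samples in duplicate on each, values averaged across plates.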

[1] = tested on: leukotriene pathway in human whole blood (LTB4 levels); test: Human whole blood assay (A23187-stimulated LTB4); assay type: cell-based; conditions: Homo sapiens, human whole blood diluted 1:1 in RPMI, A23187-stimulated LTB4; read-out: LTB4 IC50 1:1
In short: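 Heparinised human whole blood, diluted 1:1 in RPMI, was pre-incubated with test compounds for 15 min at 37° Celsius, then stimulated with A23187 (7 μg/mL) for 30 min at 37° Celsius. Plasma LTB4 was measured by immunoassay kit; IC50 from 4-parameter fit; single replicate, at least one healthy donor.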

[2] = read-out: FLAP Binding wild type HTRF Ki
[3] = human FLAP wild type, HTRF format, average of two plates, duplicates

human FLAP, sequence (P20292 whole entry): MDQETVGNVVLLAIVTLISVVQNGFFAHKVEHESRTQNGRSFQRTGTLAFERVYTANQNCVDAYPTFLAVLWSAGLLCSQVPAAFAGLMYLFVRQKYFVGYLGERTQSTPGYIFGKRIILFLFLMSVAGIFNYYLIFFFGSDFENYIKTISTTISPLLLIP

Compound | Ki (human FLAP; [2]) | IC50 [1] | Ki (human FLAP; [3])
CC(C)(O)CNS(=O)(=O)c1ccccc1-c1ccc(-c2cnc(N)nc2)c(F)c1 [Example 272, 4′-(2-Aminopyrimidin-5-yl)-3′-fluoro-N-(2-hydroxy-2-methylpropyl)biphenyl-2-sulfonamide trifluoroacetic acid salt] | 0.032 µM | 0.125 µM | 
CC(C)[C@H](CO)NS(=O)(=O)c1ccccc1-c1ccc(-c2cnc(N)nc2)c(F)c1 [Example 273, 4′-(2-Aminopyrimidin-5-yl)-3′-fluoro-N-[(1R)-1-(hydroxymethyl)-2-methylpropyl]biphenyl-2-sulfonamide trifluoroacetic acid salt] |  | 0.105 µM | 0.009 µM
Nc1ncc(-c2ccc(-c3ccccc3S(=O)(=O)NCCO)cc2F)cn1 [Example 275, 4′-(2-Aminopyrimidin-5-yl)-3′-fluoro-N-(2-hydroxyethyl)biphenyl-2-sulfonamide trifluoroacetic acid salt] | 0.065 µM | 0.192 µM | 
Nc1ncc(-c2ccc(-c3ccccc3S(=O)(=O)N3CCC[C@@H]3CO)cc2F)cn1 [Example 276, [(2R)-1-{[4′-(2-Aminopyrimidin-5-yl)-3′-fluorobiphenyl-2-yl]sulfonyl}pyrrolidin-2-yl]methanol trifluoroacetic acid salt] |  | 0.325 µM | 0.023 µM
Nc1ncc(-c2ccc(-c3ccccc3S(=O)(=O)N3CCC[C@H]3CO)cc2F)cn1 [Example 277, [(2S)-1-{[4′-(2-Aminopyrimidin-5-yl)-3′-fluorobiphenyl-2-yl]sulfonyl}pyrrolidin-2-yl]methanol trifluoroacetic acid salt] |  | > 1 µM | 0.052 µM
C[C@@H](O)CNS(=O)(=O)c1ccccc1-c1ccc(-c2cnc(N)nc2)c(F)c1 [Example 278, 4′-(2-Aminopyrimidin-5-yl)-3′-fluoro-N-[(2R)-2-hydroxypropyl]biphenyl-2-sulfonamide-trifluoroacetic acid salt] |  | 0.095 µM | 0.036 µM
C[C@H](O)CNS(=O)(=O)c1ccccc1-c1ccc(-c2cnc(N)nc2)c(F)c1 [Example 279, 4′-(2-Aminopyrimidin-5-yl)-3′-fluoro-N-[(2S)-2-hydroxypropyl]biphenyl-2-sulfonamide trifluoroacetic acid salt] |  | 0.149 µM | 0.07 µM
CC(C)(CO)NS(=O)(=O)c1ccccc1-c1ccc(-c2cnc(N)nc2)c(F)c1 [Example 280, 4′-(2-Aminopyrimidin-5-yl)-3′-fluoro-N-(2-hydroxy-1,1-dimethylethyl)biphenyl-2-sulfonamide trifluoroacetic acid salt] | 0.003 µM | 0.087 µM | 
Nc1ncc(-c2ccc(-c3ccccc3S(=O)(=O)N3CCN(CCO)CC3)cc2F)cn1 [Example 282, 2-(4-{[4′-(2-Aminopyrimidin-5-yl)-3′-fluorobiphenyl-2-yl]sulfonyl}piperazin-1-yl)ethanol trifluoroacetic acid salt] | 0.75 µM | 0.28 µM | 
Nc1ncc(-c2ccc(-c3ccccc3S(=O)(=O)NCC3CC3)cc2F)cn1 [Example 283, 4′-(2-Aminopyrimidin-5-yl)-N-(cyclopropylmethyl)-3′-fluorobiphenyl-2-sulfonamide trifluoroacetic acid] |  | 0.119 µM | 0.009 µM
Nc1ncc(-c2ccc(-c3ccccc3S(=O)(=O)NC3CC3)cc2F)cn1 [Example 284, 4′-(2-Aminopyrimidin-5-yl)-N-cyclopropyl-3′-fluorobiphenyl-2-sulfonamide trifluoroacetic acid salt] |  | 1.04 µM | 0.042 µM
Nc1ncc(-c2ccc(-c3ccccc3S(=O)(=O)Nc3ccccc3)cc2F)cn1 [Example 285, 4′-(2-Aminopyrimidin-5-yl)-3′-fluoro-N-phenylbiphenyl-2-sulfonamide trifluoroacetic acid salt] |  | 0.111 µM | 0.003 µM
C[C@@H](CO)NS(=O)(=O)c1ccccc1-c1ccc(-c2cnc(N)nc2)c(F)c1 [Example 286, 4′-(2-Aminopyrimidin-5-yl)-3′-fluoro-N-[(1S)-2-hydroxy-1-methylethyl]biphenyl-2-sulfonamide trifluoroacetic acid salt] |  | 0.206 µM | 0.142 µM
Cc1cccc(-c2ccc(-c3cnc(N)nc3)c(F)c2)c1S(=O)(=O)NC(C)(C)C [Example 287, 4′-(2-Aminopyrimidin-5-yl)-N-tert-butyl-3′-fluoro-3-methylbiphenyl-2-sulfonamide trifluoroacetic acid salt] |  | 0.074 µM | 0.009 µM
CNS(=O)(=O)c1ccccc1-c1ccc(-c2cnc(N)nc2)c(F)c1 [Example 288, 4′-(2-Aminopyrimidin-5-yl)-3′-fluoro-N-methylbiphenyl-2-sulfonamide trifluoroacetic acid salt] |  | 0.42 µM | 0.103 µM
C[C@H](CO)NS(=O)(=O)c1ccccc1-c1ccc(-c2cnc(N)nc2)c(F)c1 [Example 289, 4′-(2-Aminopyrimidin-5-yl)-3′-fluoro-N-[(1R)-2-hydroxy-1-methylethyl]biphenyl-2-sulfonamide] |  | 0.036 µM | 0.022 µM

Compound | Ki (human FLAP; [2]) | IC50 [1] | Ki (human FLAP; [3])
Nc1ncc(-c2ccc(-c3ccccc3S(=O)(=O)N[C@H](c3ccccc3)C(F)(F)F)cc2F)cn1 [Example 291, 4′-(2-Aminopyrimidin-5-yl)-3′-fluoro-N-[(1R)-2,2,2-trifluoro-1-phenylethyl]biphenyl-2-sulfonamide trifluoroacetic acid salt] | 0.007 µM | 0.421 µM | 
Nc1ncc(-c2ccc(-c3ccccc3S(=O)(=O)N[C@@H](c3ccccc3)C(F)(F)F)cc2F)cn1 [Example 292, 4′-(2-Aminopyrimidin-5-yl)-3′-fluoro-N-[(1S)-2,2,2-trifluoro-1-phenylethyl]biphenyl-2-sulfonamide trifluoroacetic acid salt] | 0.012 µM | 1.03 µM | 
CC(C)CNS(=O)(=O)c1ccccc1-c1ccc(-c2cnc(N)nc2)c(F)c1 [Example 294, 4′-(2-Aminopyrimidin-5-yl)-3′-fluoro-N-(2-methylpropyl)biphenyl-2-sulfonamide trifluoroacetic acid salt] |  | 0.248 µM | 0.002 µM
CCNS(=O)(=O)c1ccccc1-c1ccc(-c2cnc(N)nc2)c(F)c1 [Example 295, 4′-(2-Aminopyrimidin-5-yl)-N-ethyl-3′-fluorobiphenyl-2-sulfonamide trifluoroacetic acid salt] |  | 0.11 µM | 0.025 µM
CC(C)(NS(=O)(=O)c1ccccc1-c1ccc(-c2cnc(N)nc2)c(F)c1)C(F)(F)F [Example 296, 4′-(2-Aminopyrimidin-5-yl)-3′-fluoro-N-(2,2,2-trifluoro-1,1-dimethylethyl)biphenyl-2-sulfonamide trifluoroacetic acid salt] |  | 0.066 µM | 0.005 µM
C[C@H](NS(=O)(=O)c1ccccc1-c1ccc(-c2cnc(N)nc2)c(F)c1)C(F)(F)F [Example 297, 4′-(2-Aminopyrimidin-5-yl)-3′-fluoro-N-[(1S)-2,2,2-trifluoro-1-methylethyl]biphenyl-2-sulfonamide trifluoroacetic acid salt] | 0.005 µM | 0.045 µM | 
CCN(CC)S(=O)(=O)c1ccccc1-c1ccc(-c2cnc(N)nc2)c(F)c1 [Example 300, 4′-(2-Aminopyrimidin-5-yl)-N,N-diethyl-3′-fluorobiphenyl-2-sulfonamide trifluoroacetic acid salt] |  | 0.12 µM | 0.013 µM
Nc1ncc(-c2ccc(-c3ccccc3S(=O)(=O)N3CCCCC3)cc2F)cn1 [Example 301, 5-[3-Fluoro-2′-(piperidin-1-ylsulfonyl)biphenyl-4-yl]pyrimidin-2-amine trifluoroacetic acid salt] |  | 0.204 µM | 0.013 µM
CC(C)(C)NS(=O)(=O)c1ccccc1-c1ccc(-c2cnc(N)nc2)c(F)c1 [Example 305, 4′-(2-Aminopyrimidin-5-yl)-N-(tert-butyl)-3′-fluoro-[1,1′-biphenyl]-2-sulfonamide trifluoroacetic acid salt] |  | 0.078 µM | 0.002 µM
C[C@H](NS(=O)(=O)c1ccccc1-c1ccc(-c2cnc(N)nc2)c(F)c1)C(=O)OC(C)(C)C [Example 307, tert-Butyl N-{[4′-(2-aminopyrimidin-5-yl)-3′-fluorobiphenyl-2-yl]sulfonyl}-L-alaninate] |  | 0.416 µM | 0.004 µM
Nc1ncc(-c2ccc(-c3ccccc3NS(=O)(=O)N3CCCC3)cc2F)cn1 [Example 309, N-[4′-(2-Aminopyrimidin-5-yl)-3′-fluorobiphenyl-2-yl]pyrrolidine-1-sulfonamide] |  | 1.79 µM | 0.214 µM
Nc1ncc(-c2ccc(-c3ccccc3S(=O)(=O)N3CC4(COC4)C3)cc2F)cn1 [Example 312, 5-(2′-(2-Oxa-6-azaspiro[3.3]heptan-6-ylsulfonyl)-3-fluoro-[1,1′-biphenyl]-4-yl)pyrimidin-2-amine] |  | 0.376 µM | 0.262 µM
Nc1ncc(-c2ccc(-c3ccccc3S(=O)(=O)N3CC4(C3)CS(=O)(=O)C4)cc2F)cn1 [Example 313, 6-((4′-(2-Aminopyrimidin-5-yl)-3′-fluoro-[1,1′-biphenyl]-2-yl)sulfonyl)-2-thia-6-azaspiro[3.3]heptane 2,2-dioxide] |  | 0.574 µM | 0.397 µM
Nc1ncc(-c2ccc(-c3ccccc3S(=O)(=O)N3CC(O)(C(F)(F)F)C3)cc2F)cn1 [Example 315, 1-((4′-(2-Aminopyrimidin-5-yl)-3′-fluoro-[1,1′-biphenyl]-2-yl)sulfonyl)-3-(trifluoromethyl)azetidin-3-ol] | 0.001 µM | 0.027 µM | 
Nc1ncc(-c2ccc(-c3ccccc3S(=O)(=O)Cc3nc4ccccc4c(=O)[nH]3)cc2F)cn1 [Example 317, 2-(((4′-(2-Aminopyrimidin-5-yl)-3′-fluoro-[1,1′-biphenyl]-2-yl)sulfonyl)methyl)quinazolin-4(3H)-one] |  | > 10 µM | 0.335 µM
